The NIST ThermoML archive (doi:10.1021/je101317k)
Numbers after ± are expanded uncertainties.

Experiments:
[1] = refractive index (other wavelength) (dimensionless); xn = mol fraction of the nth substance listed; settings: 101 kPa, Liquid, Wavelength=632.8 nm, Standard Abbe refractometry
[2] = refractive index (other wavelength) (dimensionless); settings: 101 kPa, Liquid, Wavelength=632.8 nm, Standard Abbe refractometry

Structure (SMILES): CCCCCCCCCCCC [dodecane] + COC(=O)OC
- refractive index ([1]; 299.73 K, x2 = 0.103): 1.414 ± 0.0004
- refractive index ([1]; 299.73 K, x2 = 0.204): 1.4106 ± 0.0004
- refractive index ([1]; 299.73 K, x2 = 0.299): 1.4071 ± 0.0004
- refractive index ([1]; 299.73 K, x2 = 0.409): 1.4028 ± 0.0004
- refractive index ([1]; 299.73 K, x2 = 0.512): 1.3983 ± 0.0004
- refractive index ([1]; 299.73 K, x2 = 0.611): 1.3934 ± 0.0004
- refractive index ([1]; 299.73 K, x2 = 0.713): 1.3875 ± 0.0004
- refractive index ([1]; 299.73 K, x2 = 0.791): 1.3823 ± 0.0004
- refractive index ([1]; 299.73 K, x2 = 0.899): 1.3739 ± 0.0004

Structure (SMILES): CCCCCCCCC [nonane]
- refractive index ([2]; 277.15 K): 1.4116 ± 0.0004
- refractive index ([2]; 278.19 K): 1.4111 ± 0.0004
- refractive index ([2]; 279.2 K): 1.4106 ± 0.0004
- refractive index ([2]; 279.71 K): 1.4104 ± 0.0004
- refractive index ([2]; 280.28 K): 1.4101 ± 0.0004
- refractive index ([2]; 281.69 K): 1.4095 ± 0.0004

Structure (SMILES): COC(=O)OC [dimethyl carbonate]
- refractive index ([2]; 277.78 K): 1.3747 ± 0.0004
- refractive index ([2]; 278.13 K): 1.3745 ± 0.0004
- refractive index ([2]; 279.18 K): 1.374 ± 0.0004
- refractive index ([2]; 280.25 K): 1.3735 ± 0.0004
- refractive index ([2]; 280.74 K): 1.3733 ± 0.0004
- refractive index ([2]; 281.69 K): 1.3728 ± 0.0004
- refractive index ([2]; 293.19 K): 1.3676 ± 0.0004
- refractive index ([2]; 294.27 K): 1.3671 ± 0.0004
- refractive index ([2]; 295.3 K): 1.3666 ± 0.0004
- refractive index ([2]; 296.34 K): 1.3661 ± 0.0004
- refractive index ([2]; 297.38 K): 1.3656 ± 0.0004
- refractive index ([2]; 298.4 K): 1.3651 ± 0.0004
- refractive index ([2]; 299.48 K): 1.3647 ± 0.0004

Structure (SMILES): CCCCCCCCCCCC [dodecane]
- refractive index ([2]; 293.28 K): 1.4203 ± 0.0004
- refractive index ([2]; 294.33 K): 1.4198 ± 0.0004
- refractive index ([2]; 295.37 K): 1.4194 ± 0.0004
- refractive index ([2]; 296.54 K): 1.4189 ± 0.0004
- refractive index ([2]; 297.58 K): 1.4184 ± 0.0004
- refractive index ([2]; 298.65 K): 1.418 ± 0.0004
- refractive index ([2]; 299.72 K): 1.4175 ± 0.0004

Structure (SMILES): CCCCCCCCC [nonane] + COC(=O)OC
- refractive index ([1]; 281.69 K, x2 = 0): 1.4095 ± 0.0004
- refractive index ([1]; 281.69 K, x2 = 0.105): 1.4061 ± 0.0004
- refractive index ([1]; 281.69 K, x2 = 0.201): 1.4031 ± 0.0004
- refractive index ([1]; 281.69 K, x2 = 0.305): 1.3999 ± 0.0004
- refractive index ([1]; 281.69 K, x2 = 0.405): 1.3968 ± 0.0004
- refractive index ([1]; 281.69 K, x2 = 0.505): 1.3936 ± 0.0004
- refractive index ([1]; 281.69 K, x2 = 0.596): 1.3905 ± 0.0004
- refractive index ([1]; 281.69 K, x2 = 0.706): 1.3863 ± 0.0004
- refractive index ([1]; 281.69 K, x2 = 0.8): 1.3822 ± 0.0004
- refractive index ([1]; 281.69 K, x2 = 0.888): 1.3781 ± 0.0004

Structure (SMILES): COC(=O)OC [dimethyl carbonate] + CCCCCCCCC
- refractive index ([1]; 281.69 K, x1 = 1): 1.3728 ± 0.0004
